Experiments:
Type in all cases: in vivo
Piemarker [1] = assay: Herbicidal activity test for indoor post-emergence spraying on stems and leaves; design: key: grade level by weed remaining vs blank control, e.g. 5 = 10.1-15%; conditions: 150 g a.i./ha, visual inspection 21 days after treatment
Summary of the method: (§1)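 Post-emergence stem and leaf spray in an indoor test following NY/T 1155.4-2006, with weeds sown and grown in a greenhouse. Effect scored visually 21 days after treatment as graded levels, each level set by the percentage of weed remaining relative to the blank control area.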

Barnyard grass [2] = assay: as above; design: key: grade level by weed remaining vs blank control, e.g. 5 = 10.1-15%; conditions: 150 g a.i./ha, visual inspection 21 days after treatment
Summary of the method: as §1

Amaranthus retroflexus [3] = assay: as above; design: key: grade level by weed remaining vs blank control, e.g. 5 = 10.1-15%; conditions: 150 g a.i./ha, visual inspection 21 days after treatment
Summary of the method: as §1

Humulus scandens [4] = assay: as above; design: key: grade level by weed remaining vs blank control, e.g. 5 = 10.1-15%; conditions: 150 g a.i./ha, visual inspection 21 days after treatment
Summary of the method: as §1

Digitaria sanguinalis [5] = assay: as above; design: key: grade level by weed remaining vs blank control, e.g. 5 = 10.1-15%; conditions: 150 g a.i./ha, visual inspection 21 days after treatment
Summary of the method: as §1

green bristlegrass [6] = assay: as above; design: key: grade level by weed remaining vs blank control, e.g. 5 = 10.1-15%; conditions: 150 g a.i./ha, visual inspection 21 days after treatment
Summary of the method: as §1

Humulus scandens [7] = assay: Herbicidal activity test for indoor pre-emergence soil treatment; conditions: 150 g a.i./ha, visual inspection 21 days after treatment
Summary of the method: (§2)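 Pre-emergence test following NY/T 1155.3-2006: weed seeds were sown in moistened neutral sandy loam (≤2% organic matter) and covered with 0.5–2.0 cm of soil. After 24 h, the soil was sprayed with a 10% EC diluted in water at 150 g(a.i.)/ha. Damage was scored visually on a 1–9 scale at 21 days.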

Gramineae = assay: Post-emergence herbicidal activity test in a paddy field; design: key: level scale; higher level = more weed left vs blank control; conditions: 150 g a.i./ha (penoxsulam control 250 g(a.i.)/h)
Summary of the method: (§3)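 Efficacy was visually estimated 15 and 30 days after spraying, grading weed coverage relative to an untreated neighbouring plot (level 2 = 0 to 2.5%, level 9 = 67.6 to 100%). Treatments were 150 g(a.i.)/ha from 10% emulsifiable concentrates applied at the 4-5 leaf rice stage, four repeats of 50 m^2 each.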

Cyperaceae = assay: as above; design: key: level scale; higher level = more weed left vs blank control; conditions: 150 g a.i./ha (penoxsulam control 250 g(a.i.)/h)
Summary of the method: as §3

Broadleaf weed = assay: as above; design: key: level scale; higher level = more weed left vs blank control; conditions: 150 g a.i./ha (penoxsulam control 250 g(a.i.)/h)
Summary of the method: as §3

Piemarker [8] = assay: Herbicidal activity test for indoor pre-emergence soil treatment; design: key: level 1-9; higher = more weed remaining vs blank control; conditions: 150 g a.i./ha, visual inspection 21 days after treatment
Summary of the method: as §2

Barnyard grass [9] = assay: as above; design: key: level 1-9; higher = more weed remaining vs blank control; conditions: 150 g a.i./ha, visual inspection 21 days after treatment
Summary of the method: as §2

green bristlegrass [10] = assay: as above; design: key: level 1-9; higher = more weed remaining vs blank control; conditions: 150 g a.i./ha, visual inspection 21 days after treatment
Summary of the method: as §2

Amaranthus retroflexus [11] = assay: as above; design: key: 1-9 levels; higher = more weed remaining vs blank control; conditions: 150 g a.i./ha, visual inspection 21 days after treatment
Summary of the method: as §2

Digitaria sanguinalis [12] = assay: as above; design: key: 1-9 levels; higher = more weed remaining vs blank control; conditions: 150 g a.i./ha, visual inspection 21 days after treatment
Summary of the method: as §2

Barnyard grass [13] = assay: Field test for weed control in a corn field; conditions: for Post-emergence weed control effect, Barnyard grass: 150 g a.i./ha, 30 days after treatment; for controlling effect on barnyard grass: 150 g(a.i.)/ha, 21 days after treatments
Summary of the method: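 Corn-field efficacy trial following GB/T 17980.42-2000. Test compounds were formulated as 10% emulsifiable concentrates, diluted in water and sprayed post-emergence at 150 g(a.i.)/ha when corn had 2 to 5 leaves. Each treatment was replicated 4 times on 20 m^2 plots. Barnyard grass control was rated on a 1-9 damage scale.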

Amaranthus retroflexus [14] = assay: Field test for weed control in a corn field; conditions: for Post-emergence weed control effect, Amaranthus retroflexus: 150 g a.i./ha, 30 days after treatment; for controlling effect on Amaranthus retroflexus: 150 g(a.i.)/ha, 21 days after treatments
Summary of the method: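 Field efficacy trial in a corn field following GB/T 17980.42-2000. Test compounds were formulated as 10% emulsifiable concentrates, diluted in water and sprayed post-emergence when corn had 2 to 5 leaves. Each treatment covered 20 m^2 with 4 replicates. A 25% mesotrione oil dispersion served as control. Damage to Amaranthus retroflexus was rated on a 1-9 scale against untreated blank plots.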

Convolvulus arvensis = assay: Field test for weed control in a corn field; conditions: for Post-emergence weed control effect, Convolvulus arvensis: 150 g a.i./ha, after treatment; for controlling effect on Convolvulus arvensis: 150 g(a.i.)/ha, 21 days after treatments
Summary of the method: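 Field trial of weed control against Convolvulus arvensis in corn, run following GB/T 17980.42-2000. Test agents were formulated as 10% emulsifiable concentrates and sprayed in water at 150 g(a.i.)/ha when corn plants had 2 to 5 leaves. Each treatment was replicated 4 times on 20 m^2 plots, and 25% mesotrione oil dispersion served as the control agent.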

Portulaca oleracea = assay: Field test for weed control in a corn field; conditions: for Post-emergence weed control effect, Portulaca oleracea: 150 g a.i./ha, after treatment; for controlling effect on Portulaca oleracea: 150 g(a.i.)/ha, 21 days after treatments
Summary of the method: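 Field efficacy trial in corn following GB/T 17980.42-2000. Test compounds were prepared as 10% emulsifiable concentrates, diluted in water, and sprayed at 150 g(a.i.)/ha when corn had 2 to 5 leaves after sowing. Plots were 20 m^2 with 4 replicates per treatment. Herbicidal activity was scored on a 1-9 scale from weed damage symptoms and severity.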

goosegrass = assay: Field test for weed control in a corn field; conditions: for Post-emergence weed control effect, Goose grass: 150 g a.i./ha, after treatment; for controlling effect on goosegrass: 150 g(a.i.)/ha, 21 days after treatments
Summary of the method: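 Weed control efficacy against goosegrass was tested in a corn field following GB/T 17980.42-2000. Compounds formulated as 10% emulsifiable concentrates were diluted in water and sprayed post-emergence at 150 g(a.i.)/ha when corn had 2 to 5 leaves, with 4 replicates of 20 m^2 plots. Herbicidal activity was rated on a 1-9 scale by damage symptoms and severity.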

Chenopodium album = assay: Field test for weed control in a corn field; conditions: for Post-emergence weed control effect, Chenopodium album: 150 g a.i./ha, after treatment; for controlling effect on Chenopodium album: 150 g(a.i.)/ha, 21 days after treatments
Summary of the method: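 A corn-field efficacy trial following GB/T 17980.42-2000 tested post-emergence control of Chenopodium album. Test compounds formulated as 10% emulsifiable concentrates were diluted in water and sprayed at 150 g(a.i.)/ha when the corn had 2 leaves to 5 leaves, on 20 m^2 plots with 4 replicates. Herbicidal activity was rated on a 1-9 scale by damage symptoms and severity.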

Digitaria sanguinalis [15] = assay: Field test for weed control in a corn field; conditions: for Post-emergence weed control effect, Digitaria sanguinalis: 150 g a.i./ha, after treatment; for controlling effect on Digitaria sanguinalis: 150 g(a.i.)/ha, 21 days after treatments
Summary of the method: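 Field trial in a corn field following GB/T 17980.42-2000. Test compounds were formulated as 10% emulsifiable concentrates, diluted in water and sprayed post-emergence at 150 g(a.i.)/ha when corn had 2 to 5 leaves, with 4 replicates on 20 m^2 plots. Control of Digitaria sanguinalis was scored on a 1-9 scale based on weed damage relative to the untreated blank area.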

Acalypha australis = assay: Field test for weed control in a corn field; conditions: for Post-emergence weed control effect, Acalypha australis: 150 g a.i./ha, after treatment; for controlling effect on Acalypha australis: 150 g(a.i.)/ha, 21 days after treatments
Summary of the method: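 Post-emergence field trial in a corn field following GB/T 17980.42-2000. Test compounds were formulated as 10% emulsifiable concentrates, diluted in water, and sprayed at 150 g(a.i.)/ha when corn had 2 to 5 leaves, with 4 replicates on 20 m^2 plots. Mesotrione 25% oil dispersion served as the control agent. Weed control was scored on a 1-9 scale.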

Solanum nigrum = assay: Field test for weed control in a corn field; conditions: for Post-emergence weed control effect, Solanum nigrum: 150 g a.i./ha, 30 days after treatment; for controlling effect on Solanum nigrum: 150 g(a.i.)/ha, 21 days after treatments
Summary of the method: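 Post-emergence weed control was tested in a corn field following GB/T 17980.42-2000. Compounds were made into 10% emulsifiable concentrates, diluted in water and sprayed at 150 g(a.i.)/ha when corn had 2 to 5 leaves after sowing, in 20 m^2 plots with 4 replicates. Effects on Solanum nigrum were graded on a 1-9 scale relative to the blank control area.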

green bristlegrass [16] = assay: Field test for weed control in a corn field; conditions: for Post-emergence weed control effect, Green bristlegrass: 150 g a.i./ha, after treatment; for controlling effect on green bristlegrass: 150 g(a.i.)/ha, 21 days after treatments
Summary of the method: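 Post-emergence weed control was tested in a corn field following GB/T 17980.42-2000. When the corn had 2 leaves to 5 leaves after sowing, 10% emulsifiable concentrates diluted in water were sprayed at 150 g(a.i.)/ha on 20 m^2 plots, four replicates per treatment. Effects on green bristlegrass were scored on a 1-9 damage scale relative to the blank control area.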

nutgrass flatsedge = assay: Field test for weed control in a corn field; conditions: for Post-emergence weed control effect, Nutgrass flatsedge: 150 g a.i./ha, after treatment; for controlling effect on nutgrass flatsedge: 150 g(a.i.)/ha, 21 days after treatments
Summary of the method: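 A corn field efficacy trial following GB/T 17980.42-2000 assessed post-emergence control of nutgrass flatsedge. Test compounds were formulated as 10% emulsifiable concentrates, diluted in water, and sprayed at 150 g(a.i.)/ha when the corn had 2 to 5 leaves. Each treatment had 4 replicates on 20 m^2 plots. Herbicidal activity was graded on a 1-9 scale by damage symptoms and severity.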

SMILES	Herbicidal Activity Piemarker (Piemarker [1])	Herbicidal Activity Barnyard grass (Barnyard grass [2])	Herbicidal Activity Amaranthus retroflexus (Amaranthus retroflexus [3])	Herbicidal Activity Humulus scandens (Humulus scandens [4])	Herbicidal Activity Digitaria sanguinalis (Digitaria sanguinalis [5])	Herbicidal Activity Green bristlegrass (green bristlegrass [6])	Herbicidal Activity Humulus scandens (Humulus scandens [7])	Herbicidal activity 15 days after treatment Gramineae (Gramineae)	Herbicidal activity 30 days after treatment Gramineae (Gramineae)	Herbicidal activity 15 days after treatment Cyperaceae (Cyperaceae)	Herbicidal activity 30 days after treatment Cyperaceae (Cyperaceae)	Herbicidal activity 15 days after treatment Broadleaf weed (Broadleaf weed)	Herbicidal activity 30 days after treatment Broadleaf weed (Broadleaf weed)	Herbicidal Activity Piemarker (Piemarker [8])	Herbicidal Activity Barnyard grass (Barnyard grass [9])	Herbicidal Activity Green bristlegrass (green bristlegrass [10])	Herbicidal Activity Amaranthus retroflexus (Amaranthus retroflexus [11])	Herbicidal Activity Digitaria sanguinalis (Digitaria sanguinalis [12])	Post-emergence weed control effect, Barnyard grass (Barnyard grass [13])	controlling effect on barnyard grass (Barnyard grass [13])	other results
Cc1cccc(C(=O)NCc2cc(Cl)cc(Cl)c2)c1 [Compound B08]	1	1	1	1	1	2 (equivalent to 0 to 2.5% of the weed in the blank control area)	2 (equivalent to 0 to 2.5% of the weed in the blank control area)	2 (equivalent to 0 to 2.5% of the weed in the blank control area)	2 (equivalent to 0 to 2.5% of the weed in the blank control area)	1	1	2 (equivalent to 0 to 2.5% of the weed in the blank control area)	1	2 (equivalent to 0 to 2.5% of the weed in the blank control area)	2 (equivalent to 0 to 2.5% of the weed in the blank control area)	2 (equivalent to 0 to 2.5% of the weed in the blank control area)	1	2 (equivalent to 0 to 2.5% of the weed in the blank control area)	1	1	Post-emergence weed control effect, Amaranthus retroflexus (Amaranthus retroflexus [14]): 1; controlling effect on Amaranthus retroflexus (Amaranthus retroflexus [14]): 1; Post-emergence weed control effect, Convolvulus arvensis (Convolvulus arvensis): 1; controlling effect on Convolvulus arvensis (Convolvulus arvensis): 1; Post-emergence weed control effect, Portulaca oleracea (Portulaca oleracea): 1; controlling effect on Portulaca oleracea (Portulaca oleracea): 1; Post-emergence weed control effect, Goose grass (goosegrass): 1; controlling effect on goosegrass (goosegrass): 1; Post-emergence weed control effect, Chenopodium album (Chenopodium album): 1; controlling effect on Chenopodium album (Chenopodium album): 1; Post-emergence weed control effect, Digitaria sanguinalis (Digitaria sanguinalis [15]): 1; controlling effect on Digitaria sanguinalis (Digitaria sanguinalis [15]): 1; Post-emergence weed control effect, Acalypha australis (Acalypha australis): 1; controlling effect on Acalypha australis (Acalypha australis): 1; Post-emergence weed control effect, Solanum nigrum (Solanum nigrum): 1; controlling effect on Solanum nigrum (Solanum nigrum): 1; Post-emergence weed control effect, Green bristlegrass (green bristlegrass [16]): 1; controlling effect on green bristlegrass (green bristlegrass [16]): 1; Post-emergence weed control effect, Nutgrass flatsedge (nutgrass flatsedge): 1; controlling effect on nutgrass flatsedge (nutgrass flatsedge): 1
Cc1cccc(CNC(=O)c2cccc(C)c2)c1 [Compound B14, 3-methyl-N-(3-methylbenzyl)benzamide]	1	1	1	1	1	1	3 (equivalent to 2.6 to 5% of the weed in the blank control area)	1	1	1	1	1	1	1	1	1	2 (equivalent to 0 to 2.5% of the weed in the blank control area)	2 (equivalent to 0 to 2.5% of the weed in the blank control area)	1	1	Post-emergence weed control effect, Amaranthus retroflexus (Amaranthus retroflexus [14]): 1; controlling effect on Amaranthus retroflexus (Amaranthus retroflexus [14]): 1; Post-emergence weed control effect, Convolvulus arvensis (Convolvulus arvensis): 1; controlling effect on Convolvulus arvensis (Convolvulus arvensis): 1; Post-emergence weed control effect, Portulaca oleracea (Portulaca oleracea): 1; controlling effect on Portulaca oleracea (Portulaca oleracea): 1; Post-emergence weed control effect, Goose grass (goosegrass): 1; controlling effect on goosegrass (goosegrass): 1; Post-emergence weed control effect, Chenopodium album (Chenopodium album): 1; controlling effect on Chenopodium album (Chenopodium album): 1; Post-emergence weed control effect, Digitaria sanguinalis (Digitaria sanguinalis [15]): 1; controlling effect on Digitaria sanguinalis (Digitaria sanguinalis [15]): 1; Post-emergence weed control effect, Acalypha australis (Acalypha australis): 1; controlling effect on Acalypha australis (Acalypha australis): 1; Post-emergence weed control effect, Solanum nigrum (Solanum nigrum): 1; controlling effect on Solanum nigrum (Solanum nigrum): 1; Post-emergence weed control effect, Green bristlegrass (green bristlegrass [16]): 1; controlling effect on green bristlegrass (green bristlegrass [16]): 1; Post-emergence weed control effect, Nutgrass flatsedge (nutgrass flatsedge): 1; controlling effect on nutgrass flatsedge (nutgrass flatsedge): 1

From patent US20220330549A1, “USE OF N-BENZYLBENZAMIDE-BASED COMPOUND AS HERBICIDE” (Northwest A&F University, priority 2020, published 2022)
